# Test results reported in patent US20210361575A1, “LIPID PRODRUGS FOR USE IN DRUG DELIVERY” (NEW MEXICO TECH UNIVERSITY RESEARCH PARK CORPORATION, priority 2018, published 2021).
# Where two headings read alike, the source gives them in different places.
# Assays:
# [1] = Differential scanning calorimetry of loaded liposomes; format: physicochemical; conditions: increasing concentration, prodrugs 0 to 37 mol %, parents 0 to 31 mol %; compared to empty liposomes; not extruded
# Experimental: Prodrug-loaded liposome (PLL) samples were prepared using 20 mg of lipid per 1 mL of […] for each compound with increasing prodrug concentrations without extrusion. Deionized water was used as the calibration standard. 10 μL from each liposome suspension was transferred and sealed in an aluminum DSC pan. DSC measurements were taken at room temperature, and the sample was then heated from 15° C. to 55° C. at 5° C./min.
# DSC is a thermal analytical technique useful for designing lipid drug delivery systems, like liposomes, by determining the compatibility of mixed molecules and compositions with the liposome bilayer. The thermotropic behavior of the liposomes at varying prodrug concentrations is measured to determine whether insertion of the molecules modifies the phase transition temperature. The pre-phase transition was masked by PEG-2000. […] As the concentration was increased, the phase transition returned to the phase transition of empty liposomes. […] All liposome suspensions used for DSC analysis were prepared in deionized water instead of sodium buffer to prevent undesired interactions. The samples were not extruded.
# HeLa cells [2] = assay: MTT cytotoxicity of prodrug-loaded liposomes and parent compounds, HeLa; format: cell-based, Human; conditions: 48 hours, free parent compounds or prodrug-incorporated liposomes (20 mol %), read-out: cell viability (MTT), potency
# MCF-7 cells = assay: MTT cytotoxicity of prodrug-loaded liposomes and parent compounds, MCF-7; format: cell-based, Human; conditions: MCF7, 48 hours, free parent compounds or prodrug-incorporated liposomes (20 mol %), read-out: cell viability (MTT), potency
# MCF10A cells = assay: MTT cytotoxicity of prodrug-loaded liposomes and parent compounds, MCF10A; format: cell-based; conditions: 48 hours, free parent compounds or prodrug-incorporated liposomes (20 mol %), read-out: cell viability (MTT), potency
# HeLa cells [3] = assay: MTT cytotoxicity of 2T-T and 2T-C prodrug-loaded liposomes; format: cell-based; conditions: Homo sapiens
# Experimental: To assess the cytotoxicity of 2T-T prodrug-loaded liposomes, HeLa cells were exposed to different concentrations of topotecan or 2T-T loaded liposomes for 72 hours. After the 72 hour incubation period, cell viability was assessed via an MTT assay.
# To assess the cytotoxicity of 2T-C prodrug-loaded liposomes, HeLa cells were exposed to different concentrations of cytarabine or 2T-C(NH2 attachment) loaded liposomes for 48 hours. After the 48 hour incubation period, cell viability was assessed via a MTT assay.
# [4] = 2T-P and 2T-N incorporation efficiency in liposomes (UV-Vis); format: physicochemical; conditions: parent compound in liposomes
# Experimental: Parent compound and prodrug concentrations in liposomes were determined using UV-Vis spectrophotometry; (2T-P: 292 nm; 2T-N: 285 nm). PLL were prepared at varying concentrations between 0 mol % to 50 mol %. The lipid amounts remained equivalent for samples under 50 mol %. Each sample was extruded through a 200 nm pore membrane for a total of 11 passes. Prior and post extrusion liposomes were ruptured by dissolution in DMSO (liposome suspension/DMSO, 1:9, v/v). Samples were analyzed in a quartz cuvette. The following parameters were used: scan speed: 120 nm/min; bandwidth: 2 nm; integration time: 0.15 sec; data interval: 0.30 nm; start wavelength: 500 nm; end wavelength: 190 nm.
# N and P (SCHEME 1) are hydrophobic compounds that have been altered to contain an amphiphilic tail (2T-P and 2T-N), altering their incorporation within liposomes, which can be characterized using UV-Vis. This technique measures the decreasing transmittance through a sample surface. The absorption of the liposomes at varying concentrations (after removal of unincorporated material) can be used to calculate how much of a drug has been incorporated into liposomes.
# [5] = Liposomal particle size distribution and stability (DLS); format: physicochemical; set-up: liposome diameter (DLS), Pre / liposome diameter (DLS), Post: unit not given beside the values; conditions: for PDI, Post / liposome diameter (DLS), Post: post-extrusion; for PDI, Pre / liposome diameter (DLS), Pre: pre-extrusion
# Excerpt: Liposomal size distribution was characterized via dynamic light scattering (DLS). Measurements were taken with disposable polystyrene sizing cuvettes containing the liposome suspensions. Reported DLS measurements are averages of 3 individually prepared liposome samples.
# The size distribution of the parent compounds and prodrug loaded liposomes were monitored over time using dynamic light scattering (DLS).
# The size distribution of 2T-T liposomes were characterized via DLS measurement both pre- and post-extrusion. The standard deviations of liposome diameter were lower post extrusion. […] The size distributions of 2T-T liposomes at loaded with various concentrations of 2T-T can be seen in TABLE 2, and FIGS. 10-11. […]
# [6] = 2T-T incorporation in liposomes (UV-vis, pre- and post-extrusion); format: physicochemical; conditions: 2T-T liposomes; for Actual Drug Incorporation - Post: post-extrusion; for Actual Drug Incorporation - Pre: pre-extrusion
# Experimental: 2T-T liposomes were produced with increasing concentrations of 2T-T, and passed through an extruder to remove any unincorporated 2T-T from the liposome solution. Liposome solutions were analyzed both pre- and post-extrusion using UV-vis spectroscopy with a scanning range of 200 nm-500 nm, 2 nm bandwidth, […], 0.5 nm data interval, and 100 nm/min scan speed. […] Incorporation limits were analyzed up to 70 mol % (147 uM).
smiles,measurement,setting,value
"CCCCCCCCCCCCCCCC(=O)OCC(COP(=O)([O-])OCCNC(=O)CCCC(=O)O[C@@H]1c2cc3c(cc2[C@H](c2cc(OC)c(OC)c(OC)c2)[C@@H]2C(=O)OC[C@H]21)OCO3)OC(=O)CCCCCCCCCCCCCCC.[Na+] (stereo partly drawn) [2T-P, Sodium 2,3-bis (palmitoyloxy) propyl (2-(5-oxo-5-(((5S,5aS,8aS,9S)-8-oxo-9-(3,4,5-trimethoxyphenyl)-5,5a,6,8,8a,9-hexahydrofuro[3′,4′:6,7]naphtha[2,3-d][1,3]dioxol-5-yl)oxy)pentanamido)ethyl)phosphate]",phase transition temperature behaviour (DSC thermograms),[1],shallow decreasing phase transition temperatures
same,IC50,HeLa cells [2],1370 ± 44 nM
same,IC50,MCF-7 cells,2560 ± 126 nM
same,IC50,MCF10A cells,1540 ± 130 nM
Nc1ccn([C@@H]2O[C@H](CO)[C@@H](O)[C@@H]2O)c(=O)n1 [cytarabine],IC50,HeLa cells [3]; 48 hours,4450 ± 6290 nM
CC[C@@]1(O)C(=O)OCc2c1cc1n(c2=O)Cc2cc3c(CN(C)C)c(O)ccc3nc2-1 [topotecan],IC50,HeLa cells [3]; 72 hours,51 ± 1 nM
"O=C1OCC2=C1C(c1cc(Br)cc(Br)c1)c1ccc3ccc(O)cc3c1N2 (centres unmarked) [N, 7-(3,5-Dibromophenyl)-2-hydroxy-7,11-dihydrobenzo[h]-furo[3,4-b]quinolin-8(10H)-one]",IC50,HeLa cells [2]; Homo sapiens,5 ± 1 nM
same,IC50,MCF-7 cells; Homo sapiens,3 nM
same,maximum measured loading,[4],~1.1 mol %
same,IC50,"MCF10A cells; Homo sapiens, MCF-10A",5 nM
CCCCCCCCCCCCCCCC(=O)OCC(COP(=O)([O-])OCCNC(=O)CCCC(=O)Oc1ccc2nc3c(cc2c1CN(C)C)Cn1c-3cc2c(c1=O)COC(=O)[C@@]2(O)CC)OC(=O)CCCCCCCCCCCCCCC.[Na+] (some centres unmarked) [2T-T],"PDI, Post",[5]; 2T-T 10 mol %,0.3 ± 0
same,"liposome diameter (DLS), Post",[5]; 2T-T 10 mol %,130 ± 7
same,"PDI, Pre",[5]; 2T-T 10 mol %,0.3 ± 0
same,"liposome diameter (DLS), Pre",[5]; 2T-T 10 mol %,102 ± 19
same,"PDI, Post",[5]; 2T-T 20 mol %,0.3 ± 0
same,"liposome diameter (DLS), Post",[5]; 2T-T 20 mol %,129 ± 9
same,"PDI, Pre",[5]; 2T-T 20 mol %,0.3 ± 0.1
same,"liposome diameter (DLS), Pre",[5]; 2T-T 20 mol %,121 ± 16
same,"PDI, Post",[5]; 2T-T 30 mol %,0.3 ± 0
same,"liposome diameter (DLS), Post",[5]; 2T-T 30 mol %,118 ± 25
same,"PDI, Pre",[5]; 2T-T 30 mol %,0.3 ± 0
same,"liposome diameter (DLS), Pre",[5]; 2T-T 30 mol %,98 ± 28
same,"PDI, Post",[5]; 2T-T 40 mol %,0.3 ± 0
same,"liposome diameter (DLS), Post",[5]; 2T-T 40 mol %,123 ± 10
same,"PDI, Pre",[5]; 2T-T 40 mol %,0.3 ± 0
same,"liposome diameter (DLS), Pre",[5]; 2T-T 40 mol %,114 ± 24
same,"PDI, Post",[5]; 2T-T 50* mol %,0.3
same,"liposome diameter (DLS), Post",[5]; 2T-T 50* mol %,122.4
same,"PDI, Pre",[5]; 2T-T 50* mol %,0.3
same,"liposome diameter (DLS), Pre",[5]; 2T-T 50* mol %,122.4
same,"PDI, Post",[5]; 2T-T 60* mol %,0.3
same,"liposome diameter (DLS), Post",[5]; 2T-T 60* mol %,88.76
same,"PDI, Pre",[5]; 2T-T 60* mol %,0.5
same,"liposome diameter (DLS), Pre",[5]; 2T-T 60* mol %,182.9
same,"PDI, Post",[5]; 2T-T 70* mol %,0.3
same,"liposome diameter (DLS), Post",[5]; 2T-T 70* mol %,75.43
same,"PDI, Pre",[5]; 2T-T 70* mol %,0.4
same,"liposome diameter (DLS), Pre",[5]; 2T-T 70* mol %,172.1
same,Actual Drug Incorporation - Post,[6]; predicted 10 mol % (28.2 uM),22.1 ± 7.9 µM
same,Actual Drug Incorporation - Pre,[6]; predicted 10 mol % (28.2 uM),25.3 ± 6.6 µM
same,Actual Drug Incorporation - Post,[6]; predicted 20 mol % (53.4 uM),42.8 ± 4.8 µM
same,Actual Drug Incorporation - Pre,[6]; predicted 20 mol % (53.4 uM),46.8 ± 4.8 µM
same,Actual Drug Incorporation - Post,[6]; predicted 30 mol % (76.0 uM),66.2 ± 4.9 µM
same,Actual Drug Incorporation - Pre,[6]; predicted 30 mol % (76.0 uM),71.5 ± 5.1 µM
same,Actual Drug Incorporation - Post,[6]; predicted 40 mol % (96.5 uM),77.9 ± 12.3 µM
same,Actual Drug Incorporation - Pre,[6]; predicted 40 mol % (96.5 uM),82.6 ± 13.1 µM
same,Actual Drug Incorporation - Post,[6]; predicted 50* mol % (115.1 uM),116.2 µM
same,Actual Drug Incorporation - Pre,[6]; predicted 50* mol % (115.1 uM),113.4 µM
same,Actual Drug Incorporation - Post,[6]; predicted 60* mol % (132.0 uM),126.2 µM
same,Actual Drug Incorporation - Pre,[6]; predicted 60* mol % (132.0 uM),125.4 µM
same,Actual Drug Incorporation - Post,[6]; predicted 70* mol % (147.6 uM),133.7 µM
same,Actual Drug Incorporation - Pre,[6]; predicted 70* mol % (147.6 uM),133.0 µM
"COc1cc([C@@H]2c3cc4c(cc3[C@H](O)[C@H]3COC(=O)[C@H]23)OCO4)cc(OC)c1OC [P, podophyllotoxin]",IC50,HeLa cells [2]; Homo sapiens,9 ± 1 nM
same,IC50,MCF-7 cells; Homo sapiens,9 ± 4 nM
same,maximum measured loading,[4],~11 mol %
same,IC50,"MCF10A cells; Homo sapiens, MCF-10A",14 ± 4 nM
